Results as given in paper PMC8292346, “Dysfunction of the key ferroptosis-surveilling systems hypersensitizes mice to tubular necrosis during acute kidney injury” (Nature Communications, 2021).
“And” between values parts separate entries of the source, which are not always exact repeats. Equal values may be shown once. Read-outs that look alike come from different tables or passages of the source.

Columns and labels:
[1] = Pharmacokinetic analysis of Nec-1f in mice (tissue PK); format: in vivo, C57BL/6 mice; details: for concentration at 120 min: sample collection 120 min; for concentration at 5 min: sample collection 5 min; for concentration at 15 min: sample collection 15 min; for concentration at 60 min: sample collection 60 min
NMDA = experiment: Off-target radioligand binding screen; details: Nec-1f 10 µM
MAO-A = MAO-A (Rattus norvegicus, UniProt P21396); experiment: Off-target radioligand binding screen; details: read-out: MAO-A ($): inhibition of radioligand binding
MAO-A, sequence (P21396 whole entry): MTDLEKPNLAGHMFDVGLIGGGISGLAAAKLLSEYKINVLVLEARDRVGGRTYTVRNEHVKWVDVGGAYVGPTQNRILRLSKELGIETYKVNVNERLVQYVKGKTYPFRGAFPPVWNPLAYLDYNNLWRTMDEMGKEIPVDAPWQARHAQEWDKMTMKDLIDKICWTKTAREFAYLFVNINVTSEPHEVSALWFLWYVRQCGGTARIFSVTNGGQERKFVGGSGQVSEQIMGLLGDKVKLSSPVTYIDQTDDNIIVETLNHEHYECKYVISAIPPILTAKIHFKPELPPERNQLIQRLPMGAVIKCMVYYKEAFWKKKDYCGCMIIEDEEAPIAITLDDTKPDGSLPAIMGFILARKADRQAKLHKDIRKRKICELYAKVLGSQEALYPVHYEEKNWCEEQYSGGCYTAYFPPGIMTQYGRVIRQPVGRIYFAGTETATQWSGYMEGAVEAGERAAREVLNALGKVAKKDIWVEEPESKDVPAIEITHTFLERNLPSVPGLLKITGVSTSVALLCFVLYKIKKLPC

5-HT1B (h) = 5-HT1B (h) (Homo sapiens, UniProt P28222); experiment: Off-target radioligand binding screen; details: read-out: 5-HT1B (h) ($): inhibition of radioligand binding
5-HT1B (h), sequence (P28222 whole entry): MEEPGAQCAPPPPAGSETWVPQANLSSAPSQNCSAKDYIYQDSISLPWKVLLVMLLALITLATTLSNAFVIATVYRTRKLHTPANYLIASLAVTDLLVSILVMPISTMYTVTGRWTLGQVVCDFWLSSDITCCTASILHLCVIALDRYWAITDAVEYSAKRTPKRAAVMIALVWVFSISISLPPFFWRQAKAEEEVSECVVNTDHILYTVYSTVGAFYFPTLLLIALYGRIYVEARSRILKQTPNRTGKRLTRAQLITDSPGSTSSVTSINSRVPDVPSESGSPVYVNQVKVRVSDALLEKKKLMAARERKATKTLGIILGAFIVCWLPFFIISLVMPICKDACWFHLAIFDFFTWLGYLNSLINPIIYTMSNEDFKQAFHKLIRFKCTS

D2S(h) = D2S(h) (Homo sapiens, UniProt P14416); experiment: Off-target radioligand binding screen; details: read-out: D2S(h) (#): inhibition of radioligand binding
D2S(h), sequence (P14416 1-414 isoform P14416-2): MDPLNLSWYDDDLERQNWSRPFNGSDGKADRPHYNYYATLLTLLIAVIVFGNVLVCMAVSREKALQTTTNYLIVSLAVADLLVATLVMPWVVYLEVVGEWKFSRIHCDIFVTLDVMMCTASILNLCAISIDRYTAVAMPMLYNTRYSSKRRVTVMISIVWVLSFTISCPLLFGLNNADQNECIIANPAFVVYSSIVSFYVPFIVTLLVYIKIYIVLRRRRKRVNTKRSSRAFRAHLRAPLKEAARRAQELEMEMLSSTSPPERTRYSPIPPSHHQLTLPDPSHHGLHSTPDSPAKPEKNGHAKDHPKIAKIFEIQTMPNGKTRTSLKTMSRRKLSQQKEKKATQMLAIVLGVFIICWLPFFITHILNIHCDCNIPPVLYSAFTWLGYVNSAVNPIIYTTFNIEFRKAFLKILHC

AR(h) = experiment: Off-target radioligand binding screen; details: Nec-1f 10 µM
[2] = male, C57BL/6, mouse, liver, intraperitoneal, liver, individual mice, read-out: concentration in liver
[3] = male, C57BL/6, mouse, lung, intraperitoneal, lung, individual mice, read-out: concentration in lung
[4] = male, C57BL/6, mouse, pancreas, intraperitoneal, pancreas, individual mice, read-out: concentration in pancreas
[5] = male, C57BL/6, mouse, plasma, intraperitoneal, 2 mg/ml, plasma, individual mice, read-out: concentration in plasma
[6] = male, C57BL/6, mouse, whole blood, intraperitoneal, 2 mg/ml, blood, individual mice, read-out: concentration in blood

Molecule `CN1C(=O)C(Cc2c[nH]c3c(Cl)cccc23)NC1=S` (stereo not drawn) [Nec-1f] has a concentration at 120 min ([1]; male, C57BL/6, mouse, kidney, intraperitoneal, 2 mg/ml, kidney, individual mice, read-out: concentration in kidney) of 0 ng/mL, a concentration at 30 min ([1]; male, C57BL/6, mouse, kidney, intraperitoneal, 2 mg/ml, sample collection 30 min, individual mice) of 51 ng/mL and a half-life ([1]; male, C57BL/6, mouse, kidney, ip, mice, single i.p. injection 2 mg/kg) of 3.52 h. For the same molecule, the concentration at 240 min ([1]; male, C57BL/6, mouse, liver, intraperitoneal, 2 mg/kg, liver, sample collection 240 min, individual mice, read-out: concentration in liver) was 0 ng/mL, the concentration at 360 min ([1]; male, C57BL/6, mouse, liver, intraperitoneal, 2 mg/kg, liver, sample collection 360 min, individual mice, read-out: concentration in liver) was 0 ng/mL and the concentration at 480 min ([1]; male, C57BL/6, mouse, liver, intraperitoneal, 2 mg/kg, liver, sample collection 480 min, individual mice, read-out: concentration in liver) was 0 ng/mL. The concentration at 1440 min ([1]; male, C57BL/6, mouse, liver, intraperitoneal, 2 mg/kg, liver, sample collection 1440 min, individual mice, read-out: concentration in liver) was 0 ng/mL, the concentration at 0 min ([1]; male, C57BL/6, mouse, liver, intraperitoneal, liver, sample collection 0 min, individual mice, read-out: concentration in liver) was 0 ng/mL and the concentration at 5 min [1, 2] was 202 ng/mL. It also gave a concentration at 15 min [1, 2] of 334 ng/mL, a concentration at 120 min [1, 2] of 0 ng/mL and a concentration at 240 min ([1]; male, C57BL/6, mouse, lung, intraperitoneal, 2 mg/kg, lung, sample collection 240 min, individual mice, read-out: concentration in lung) of 0 ng/mL. The concentration at 360 min ([1]; male, C57BL/6, mouse, lung, intraperitoneal, 2 mg/kg, lung, sample collection 360 min, individual mice, read-out: concentration in lung) was 0 ng/mL, the concentration at 480 min ([1]; male, C57BL/6, mouse, lung, intraperitoneal, 2 mg/kg, lung, sample collection 480 min, individual mice, read-out: concentration in lung) was 0 ng/mL and the concentration at 0 min ([1]; male, C57BL/6, mouse, lung, intraperitoneal, lung, sample collection 0 min, individual mice, read-out: concentration in lung) was 0 ng/mL. The concentration at 5 min [1, 3] was 573 ng/mL, the concentration at 60 min [1, 3] was 321 ng/mL and the concentration at 120 min [1, 3] was 50 ng/mL. It also gave a concentration at 1440 min ([1]; male, C57BL/6, mouse, lung, intraperitoneal, lung, sample collection 1440 min, individual mice, read-out: concentration in lung) of 0 ng/mL, a concentration at 0 min ([1]; male, C57BL/6, mouse, pancreas, intraperitoneal, pancreas, sample collection 0 min, individual mice, read-out: concentration in pancreas) of 0 ng/mL and a concentration at 5 min [1, 4] of 8950 ng/mL. The concentration at 15 min [1, 4] was 35200 ng/mL, the concentration at 120 min [1, 4] was 490 ng/mL and the concentration at 1440 min ([1]; male, C57BL/6, mouse, pancreas, intraperitoneal, pancreas, sample collection 1440 min, individual mice, read-out: concentration in pancreas) was 0 ng/mL. It also gave a concentration at 240 min ([1]; male, C57BL/6, mouse, plasma, intraperitoneal, 2 mg/kg, plasma, sample collection 240 min, individual mice, read-out: concentration in plasma) of 0 ng/mL, a concentration at 360 min ([1]; male, C57BL/6, mouse, plasma, intraperitoneal, 2 mg/kg, plasma, sample collection 360 min, individual mice, read-out: concentration in plasma) of 0 ng/mL and a concentration at 480 min ([1]; male, C57BL/6, mouse, plasma, intraperitoneal, 2 mg/kg, plasma, sample collection 480 min, individual mice, read-out: concentration in plasma) of 0 ng/mL. For the same molecule, the concentration at 1440 min ([1]; male, C57BL/6, mouse, plasma, intraperitoneal, 2 mg/kg, plasma, sample collection 1440 min, individual mice, read-out: concentration in plasma) was 0 ng/mL, the concentration at 0 min ([1]; male, C57BL/6, mouse, plasma, intraperitoneal, 2 mg/ml, plasma, sample collection 0 min, individual mice, read-out: concentration in plasma) was 0 ng/mL and the concentration at 5 min [1, 5] was 0 ng/mL. For the same molecule, the concentration at 60 min [1, 5] was 19 ng/mL, the concentration at 120 min [1, 5] was 0 ng/mL and the concentration at 240 min ([1]; male, C57BL/6, mouse, whole blood, intraperitoneal, 2 mg/kg, blood, sample collection 240 min, individual mice, read-out: concentration in blood) was 0 ng/mL. For the same molecule, the concentration at 360 min ([1]; male, C57BL/6, mouse, whole blood, intraperitoneal, 2 mg/kg, blood, sample collection 360 min, individual mice, read-out: concentration in blood) was 0 ng/mL, the concentration at 480 min ([1]; male, C57BL/6, mouse, whole blood, intraperitoneal, 2 mg/kg, blood, sample collection 480 min, individual mice, read-out: concentration in blood) was 0 ng/mL and the concentration at 0 min ([1]; male, C57BL/6, mouse, whole blood, intraperitoneal, 2 mg/ml, blood, sample collection 0 min, individual mice, read-out: concentration in blood) was 0 ng/mL. For the same molecule, the concentration at 5 min [1, 6] was 0 ng/mL, the concentration at 60 min [1, 6] was 0 ng/mL and the concentration at 120 min [1, 6] was 0 ng/mL. The concentration at 1440 min ([1]; male, C57BL/6, mouse, whole blood, intraperitoneal, 2 mg/ml, blood, sample collection 1440 min, individual mice, read-out: concentration in blood) was 0 ng/mL, the concentration in pancreas ([1]; pancreas, sample collection 240 min, individual mice) was 476 ng/mL and 7372 ng/mL and 2018 ng/mL and the concentration in pancreas ([1]; pancreas, sample collection 360 min, individual mice) was 0 ng/mL and 1720 ng/mL and 911 ng/mL. For the same molecule, the concentration in pancreas ([1]; pancreas, sample collection 480 min, individual mice) was 0 ng/mL and 176 ng/mL and 625 ng/mL, the concentration in pancreas ([1]; pancreas, sample collection 1440 min, individual mice) was 0 ng/mL and the concentration in plasma ([1]; plasma, sample collection 0 min, individual mice) was 0 ng/mL. It also gave a concentration in plasma ([1]; plasma, sample collection 240 min, individual mice) of 0 ng/mL, a concentration in plasma ([1]; plasma, sample collection 360 min, individual mice) of 0 ng/mL and a concentration in plasma ([1]; plasma, sample collection 480 min, individual mice) of 0 ng/mL. The concentration in plasma ([1]; plasma, sample collection 1440 min, individual mice) was 0 ng/mL, the “NMDA ($): inhibition of radioligand binding” value (NMDA) was 1.4% and the inhibition at 10 µM (MAO-A) was 44.4%. For the same molecule, the inhibition at 10 µM (5-HT1B (h)) was -12.9%, the inhibition at 10 µM (D2S(h)) was 4.8% and the “AR(h) (#): inhibition of radioligand binding” value (AR(h)) was 12.2%.
